Assay results reported in ChEMBL document CHEMBL1201862, “PubChem BioAssay data set” (2004).
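Dose response: 5 concentrations. Exposure: 48 h. Format: 96-well plates. Endpoint: linear interpolation; highest concentration if not reached. GI50 marks 50% less growth.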 Activity calls are given as the source filed them. Rule as the data show it: active = GI50 up to about 1.1 µM and inactive = higher.

Assays:
Test in all cases: inhibition of tumour cell growth, NCI panel, 48 h
[1] = test system: 786-0
[2] = test system: ACHN
[3] = test system: CAKI-1
[4] = test system: HCC 2998
[5] = test system: HOP-62
[6] = test system: HT-29
[7] = test system: M14
[8] = test system: MDA-MB-435
[9] = test system: MDA-N
[10] = test system: MOLT-4
[11] = test system: NCI-H522
[12] = test system: NCI/ADR-RES
[13] = test system: OVCAR-5
[14] = test system: SNB-19
[15] = test system: SR
[16] = test system: SW-620
[17] = test system: TK-10
[18] = test system: U-251
[19] = test system: UACC-257
[20] = test system: UACC-62

Row | Structure (SMILES) | GI50 [1] | GI50 [2] | GI50 [3] | GI50 [4] | GI50 [5] | GI50 [6] | GI50 [7] | GI50 [8] | GI50 [9] | GI50 [10] | GI50 [11] | GI50 [12] | GI50 [13] | GI50 [14] | GI50 [15] | GI50 [16] | GI50 [17] | GI50 [18] | GI50 [19] | GI50 [20]
1 | COc1ccc(S(=O)(=O)NC(CCC(=O)NC(N)=O)C(=O)NC(N)=O)cc1 (stereo not given) | > 100 µM (inactive) | > 100 µM (inactive) | > 100 µM (inactive) | > 100 µM (inactive) | > 100 µM (inactive) | > 100 µM (inactive) | > 100 µM (inactive) | > 100 µM (inactive) | > 100 µM (inactive) | > 100 µM (inactive) | > 100 µM (inactive) | > 100 µM (inactive) | > 100 µM (inactive) | > 100 µM (inactive) | > 100 µM (inactive) | > 100 µM (inactive) | > 100 µM (inactive) | > 100 µM (inactive) | > 100 µM (inactive) | > 100 µM (inactive)
2 | NS(=O)(=O)c1ccc(NCc2cnc3ccccc3n2)cc1 | > 100 µM (inactive) | > 100 µM (inactive) | > 100 µM (inactive) | > 100 µM (inactive) | > 100 µM (inactive) | > 100 µM (inactive) | > 100 µM (inactive) | > 100 µM (inactive) | > 100 µM (inactive) | > 100 µM (inactive) | > 100 µM (inactive) | > 100 µM (inactive) | > 100 µM (inactive) | > 100 µM (inactive) | > 100 µM (inactive) | > 100 µM (inactive) | > 100 µM (inactive) | > 100 µM (inactive) | > 100 µM (inactive) | > 100 µM (inactive)
3 | COc1ccccc1NS(=O)(=O)c1ccc2ncn(NS(=O)(=O)c3ccc(Cl)cc3)c(=O)c2c1 | > 100 µM (inactive) | > 100 µM (inactive) | > 100 µM (inactive) | > 100 µM (inactive) | > 100 µM (inactive) | > 100 µM (inactive) | 5.86 µM (inactive) | > 100 µM (inactive) | 67.9 µM (inactive) | > 100 µM (inactive) | > 100 µM (inactive) | > 100 µM (inactive) | 63 µM (inactive) | > 100 µM (inactive) | 63.8 µM (inactive) | > 100 µM (inactive) | > 100 µM (inactive) | > 100 µM (inactive) | > 100 µM (inactive) | 39.1 µM (inactive)
4 | CCOC(=O)c1c(NC(=O)c2cccs2)sc2c1CCCC2 | 34.8 µM (inactive) | > 68.1 µM (inactive) | 60.4 µM (inactive) | > 100 µM (inactive) | 21.8 µM (inactive) | > 100 µM (inactive) | > 100 µM (inactive) | > 100 µM (inactive) | > 100 µM (inactive) | > 100 µM (inactive) | 39.9 µM (inactive) | > 100 µM (inactive) | 35 µM (inactive) | 30.1 µM (inactive) | > 80.9 µM (inactive) | > 100 µM (inactive) | 45.8 µM (inactive) | 28.1 µM (inactive) | > 100 µM (inactive) | 52.1 µM (inactive)
5 | O=C1C(=Cc2ccco2)C(=O)C2CCCCC12 (stereo not given) | > 100 µM (inactive) | > 100 µM (inactive) | > 100 µM (inactive) | > 100 µM (inactive) | > 100 µM (inactive) | > 100 µM (inactive) | > 100 µM (inactive) | > 100 µM (inactive) | > 100 µM (inactive) | > 100 µM (inactive) | > 100 µM (inactive) | > 100 µM (inactive) | > 100 µM (inactive) | > 100 µM (inactive) | > 100 µM (inactive) | > 100 µM (inactive) | > 100 µM (inactive) | > 100 µM (inactive) | > 100 µM (inactive) | > 100 µM (inactive)
6 | CC(=O)NC1CCC(NC(=O)OC(C)(C)C)C(NC(=O)OC(C)(C)C)C1 (stereo not given) | > 100 µM (inactive) | > 100 µM (inactive) | > 100 µM (inactive) | > 100 µM (inactive) | > 100 µM (inactive) | > 100 µM (inactive) | > 100 µM (inactive) | > 100 µM (inactive) | > 100 µM (inactive) | > 100 µM (inactive) | > 100 µM (inactive) | > 100 µM (inactive) | > 100 µM (inactive) | > 100 µM (inactive) | > 100 µM (inactive) | > 100 µM (inactive) | > 100 µM (inactive) | > 100 µM (inactive) | > 100 µM (inactive) | > 100 µM (inactive)
7 | COc1ccc2nc3cc(Cl)ccc3c(NCCCNCCCNc3c4ccc(Cl)cc4nc4ccc(OC)cc34)c2c1 | < 0.01 µM (active) | < 0.01 µM (active) | 0.0156 µM (active) | 0.0178 µM (active) | < 0.01 µM (active) | < 0.01 µM (active) | 0.0266 µM (active) | 0.0374 µM (active) | < 0.01 µM (active) | 0.329 µM (active) | 0.0128 µM (active) | 0.581 µM (active) | < 0.0224 µM (active) | < 0.0179 µM (active) | < 0.01 µM (active) | 0.0131 µM (active) | 0.0741 µM (active) | 0.0137 µM (active) | 0.251 µM (active) | 0.0196 µM (active)
